Laboratory results as given in the NIST ThermoML archive (doi:10.1016/j.tca.2015.01.022).
Values joined by “and” are separate entries in the source; they are usually repeats but may differ in a detail not shown here. Equal values may be shown once.

Experiment: molar heat capacity at constant pressure
Settings: 101.33 kPa, Small (less than 1 g) adiabatic calorimetry

CCCCCCCC[n+]1ccn(C)c1.F[B-](F)(F)F [1-methyl-3-octylimidazolium tetrafluoroborate]
molar heat capacity at constant pressure
Settings | Crystal | Glass
5 K | 1.51 J/K/mol | 1.78 J/K/mol
5.07 K | – | 1.855 J/K/mol
5.13 K | 1.622 J/K/mol | –
5.35 K | – | 2.152 J/K/mol
5.41 K | 1.892 J/K/mol | –
5.63 K | – | 2.475 J/K/mol
5.69 K | 2.194 J/K/mol | –
5.92 K | – | 2.835 J/K/mol
5.98 K | 2.524 J/K/mol | –
6.24 K | – | 3.263 J/K/mol
6.3 K | 2.928 J/K/mol | –
6.6 K | – | 3.776 J/K/mol
6.66 K | 3.407 J/K/mol | –
6.96 K | – | 4.337 J/K/mol
7.03 K | 3.928 J/K/mol | –
7.33 K | – | 4.94 J/K/mol
7.4 K | 4.511 J/K/mol | –
7.7 K | – | 5.576 J/K/mol
7.78 K | 5.114 J/K/mol | –
8.08 K | – | 6.258 J/K/mol
8.15 K | 5.768 J/K/mol | –
8.46 K | – | 6.988 J/K/mol
8.54 K | 6.47 J/K/mol | –
8.84 K | – | 7.752 J/K/mol
8.92 K | 7.205 J/K/mol | –
9.23 K | – | 8.549 J/K/mol
9.31 K | 7.974 J/K/mol | –
9.61 K | – | 9.38 J/K/mol
9.7 K | 8.786 J/K/mol | –
10 K | 9.42 J/K/mol | 10.23 J/K/mol and 10.24 J/K/mol
10.1 K | 9.617 J/K/mol | –
10.5 K | – | 11.4 J/K/mol
10.6 K | 10.74 J/K/mol | –
11.11 K | – | 12.83 J/K/mol
11.21 K | 12.14 J/K/mol | –
11.73 K | – | 14.33 J/K/mol
11.82 K | 13.61 J/K/mol | –
12.34 K | – | 15.89 J/K/mol
12.44 K | 15.14 J/K/mol | –
12.96 K | – | 17.5 J/K/mol
13.07 K | 16.72 J/K/mol | –
13.58 K | – | 19.15 J/K/mol
13.69 K | 18.35 J/K/mol | –
14.2 K | – | 20.8 J/K/mol
14.32 K | 20 J/K/mol | –
14.83 K | – | 22.52 J/K/mol
14.96 K | 21.77 J/K/mol | –
15 K | 21.91 J/K/mol | 23.07 J/K/mol
15.57 K | – | 24.74 J/K/mol
15.71 K | 23.92 J/K/mol | –
16.43 K | – | 27.33 J/K/mol
16.57 K | 26.44 J/K/mol | –
17.29 K | – | 29.78 J/K/mol
17.43 K | 28.91 J/K/mol | –
18.15 K | – | 32.35 J/K/mol
18.3 K | 31.39 J/K/mol | –
19.01 K | – | 34.88 J/K/mol
19.17 K | 33.9 J/K/mol | –
19.88 K | – | 37.39 J/K/mol
20 K | 36.32 J/K/mol | 37.79 J/K/mol
20.05 K | 36.43 J/K/mol | –
21.09 K | – | 41.05 J/K/mol
21.26 K | 40.04 J/K/mol | –
22.65 K | – | 45.73 J/K/mol
22.82 K | 44.72 J/K/mol | –
24.21 K | – | 50.47 J/K/mol
24.39 K | 49.42 J/K/mol | –
25 K | 51.22 J/K/mol | 52.78 J/K/mol
25.78 K | – | 55.12 J/K/mol
25.97 K | 54.13 J/K/mol | –
27.35 K | – | 59.68 J/K/mol
27.55 K | 58.67 J/K/mol | –
28.87 K | – | 64.05 J/K/mol
29.08 K | 63.06 J/K/mol | –
30 K | 65.66 J/K/mol | 67.29 J/K/mol
30.42 K | – | 68.44 J/K/mol
30.66 K | 67.49 J/K/mol | –
32.16 K | – | 73.29 J/K/mol
32.42 K | 72.33 J/K/mol | –
34.07 K | – | 78.36 J/K/mol
34.34 K | 77.4 J/K/mol | –
35 K | 79.1 J/K/mol | 80.71 J/K/mol
35.98 K | – | 83.21 J/K/mol
36.27 K | 82.31 J/K/mol | –
37.9 K | – | 87.91 J/K/mol
38.19 K | 87.1 J/K/mol | –
39.82 K | – | 92.51 J/K/mol
40 K | 91.48 J/K/mol | 92.99 J/K/mol
40.12 K | 91.75 J/K/mol | –
41.83 K | – | 97.3 J/K/mol
42.14 K | 96.59 J/K/mol | –
43.94 K | – | 102.2 J/K/mol
44.27 K | 101.5 J/K/mol | –
45 K | 103.2 J/K/mol | 104.6 J/K/mol
46.06 K | – | 107 J/K/mol
46.4 K | 106.3 J/K/mol | –
48.18 K | – | 111.7 J/K/mol
48.53 K | 111 J/K/mol | –
50 K | 114.1 J/K/mol | 115.6 J/K/mol
50.3 K | – | 116.2 J/K/mol
50.66 K | 115.5 J/K/mol | –
52.42 K | – | 120.6 J/K/mol
52.79 K | 119.8 J/K/mol | –
54.54 K | – | 124.8 J/K/mol
54.93 K | 124 J/K/mol | –
56.66 K | – | 128.7 J/K/mol
57.07 K | 128 J/K/mol | –
58.79 K | – | 132.7 J/K/mol
59.21 K | 131.9 J/K/mol | –
60 K | 133.3 J/K/mol | 135 J/K/mol
60.93 K | – | 136.6 J/K/mol
61.36 K | 135.7 J/K/mol | –
63.07 K | – | 140.4 J/K/mol
63.51 K | 139.5 J/K/mol | –
65.21 K | – | 144.2 J/K/mol
65.66 K | 143 J/K/mol | –
67.34 K | – | 147.9 J/K/mol
67.81 K | 146.6 J/K/mol | –
69.48 K | – | 151.6 J/K/mol
69.96 K | 150.1 J/K/mol | –
70 K | 150.1 J/K/mol | 152.5 J/K/mol
71.72 K | – | 155.5 J/K/mol
72.22 K | 153.7 J/K/mol | –
74.07 K | – | 159.5 J/K/mol
74.59 K | 157.4 J/K/mol | –
76.42 K | – | 163.4 J/K/mol
76.96 K | 161 J/K/mol | –
78.77 K | – | 167.3 J/K/mol
79.33 K | 164.5 J/K/mol | –
79.7 K | 165.1 J/K/mol | –
80 K | 165.4 J/K/mol | 169.5 J/K/mol
80.09 K | 165.7 J/K/mol | –
80.17 K | – | 169.7 J/K/mol
81.13 K | – | 171.2 J/K/mol
81.61 K | 167.8 J/K/mol | –
81.71 K | 167.9 J/K/mol | –
81.87 K | 168.2 J/K/mol | –
81.93 K | – | 172.6 J/K/mol
83.39 K | 170.3 J/K/mol | –
83.49 K | – | 175 J/K/mol
83.65 K | 170.6 J/K/mol | –
83.69 K | – | 175.5 J/K/mol
84.09 K | 171.2 J/K/mol | –
85.19 K | 172.7 J/K/mol | –
85.45 K | 173.2 J/K/mol | –
85.46 K | – | 178.2 J/K/mol
87 K | 175.2 J/K/mol | –
87.24 K | – | 181 J/K/mol
87.26 K | 175.7 J/K/mol | –
88.81 K | 177.8 J/K/mol | –
89.03 K | – | 183.9 J/K/mol
89.08 K | 178.2 J/K/mol | –
90 K | 179.5 J/K/mol | 185.3 J/K/mol
90.64 K | 180.3 J/K/mol | –
90.83 K | – | 186.6 J/K/mol
90.9 K | 180.7 J/K/mol | –
92.07 K | – | 188.5 J/K/mol
92.47 K | 182.7 J/K/mol | –
92.64 K | – | 189.3 J/K/mol
92.74 K | 183.1 J/K/mol | –
93.91 K | – | 191.2 J/K/mol
94.31 K | 185.2 J/K/mol | –
94.58 K | 185.6 J/K/mol | –
95.76 K | – | 193.9 J/K/mol
96.17 K | 187.6 J/K/mol | –
96.43 K | 187.9 J/K/mol | –
97.6 K | – | 196.8 J/K/mol
98.02 K | 190.1 J/K/mol | –
98.29 K | 190.4 J/K/mol | –
99.45 K | – | 199.4 J/K/mol
99.89 K | 192.4 J/K/mol | –
100 K | 192.5 J/K/mol | 200.2 J/K/mol
100.16 K | 192.7 J/K/mol | –
101.31 K | – | 202.1 J/K/mol
101.76 K | 194.8 J/K/mol | –
102.03 K | 195.1 J/K/mol | –
103.16 K | – | 204.8 J/K/mol
103.64 K | 197.2 J/K/mol | –
103.91 K | 197.5 J/K/mol | –
105.01 K | – | 207.5 J/K/mol
105.53 K | 199.4 J/K/mol | –
105.8 K | 199.8 J/K/mol | –
106.87 K | – | 210.2 J/K/mol
107.42 K | 201.7 J/K/mol | –
107.69 K | 202.1 J/K/mol | –
108.73 K | – | 212.9 J/K/mol
109.32 K | 204.1 J/K/mol | –
109.58 K | 204.4 J/K/mol | –
110 K | 204.9 J/K/mol | 214.7 J/K/mol
110.6 K | – | 215.5 J/K/mol
111.22 K | 206.4 J/K/mol | –
111.49 K | 206.7 J/K/mol | –
112.46 K | – | 218.2 J/K/mol
113.12 K | 208.7 J/K/mol | –
113.39 K | 209 J/K/mol | –
114.33 K | – | 220.8 J/K/mol
115.03 K | 210.9 J/K/mol | –
115.3 K | 211.2 J/K/mol | –
116.2 K | – | 223.4 J/K/mol
116.94 K | 213.1 J/K/mol | –
117.21 K | 213.4 J/K/mol | –
118.07 K | – | 226.1 J/K/mol
118.86 K | 215.4 J/K/mol | –
119.13 K | 215.7 J/K/mol | –
119.94 K | – | 228.8 J/K/mol
120 K | 216.7 J/K/mol | 229 J/K/mol
120.78 K | 217.6 J/K/mol | –
121.05 K | 218 J/K/mol | –
121.81 K | – | 231.5 J/K/mol
122.7 K | 219.9 J/K/mol | –
122.97 K | 220.2 J/K/mol | –
123.69 K | – | 234.2 J/K/mol
124.63 K | 222.1 J/K/mol | –
124.9 K | 222.4 J/K/mol | –
125.57 K | – | 237 J/K/mol
126.55 K | 224.3 J/K/mol | –
126.83 K | 224.6 J/K/mol | –
127.44 K | – | 239.7 J/K/mol
128.49 K | 226.5 J/K/mol | –
128.76 K | 226.8 J/K/mol | –
129.32 K | – | 242.4 J/K/mol
130 K | 228.2 J/K/mol | 243.4 J/K/mol
130.42 K | 228.7 J/K/mol | –
130.69 K | 229 J/K/mol | –
131.2 K | – | 245.1 J/K/mol
132.35 K | 230.9 J/K/mol | –
132.62 K | 231.1 J/K/mol | –
133.08 K | – | 248 J/K/mol
134.29 K | 233.1 J/K/mol | –
134.56 K | 233.4 J/K/mol | –
134.97 K | – | 250.8 J/K/mol
136.23 K | 235.3 J/K/mol | –
136.5 K | 235.6 J/K/mol | –
136.86 K | – | 253.6 J/K/mol
138.16 K | 237.5 J/K/mol | –
138.44 K | 237.8 J/K/mol | –
138.74 K | – | 256.4 J/K/mol
140 K | 239.7 J/K/mol | 258.2 J/K/mol
140.11 K | 239.7 J/K/mol | –
140.38 K | 240 J/K/mol | –
140.63 K | – | 259.2 J/K/mol
142.05 K | 242 J/K/mol | –
142.32 K | 242.3 J/K/mol | –
142.52 K | – | 262 J/K/mol
143.99 K | 244.3 J/K/mol | –
144.26 K | 244.6 J/K/mol | –
144.42 K | – | 264.9 J/K/mol
145.93 K | 246.5 J/K/mol | –
146.2 K | 246.8 J/K/mol | –
146.31 K | – | 267.8 J/K/mol
147.87 K | 248.8 J/K/mol | –
148.14 K | 249 J/K/mol | –
